Data reported in US12637487B2 (priority 2017, dated 2026).
“Also recorded” adds a separate entry of the source.

Legend:
virus = assay: Antiviral effect of AA011 and VK021 alone; format: cell-based
[1] = at 1000 μM
[2] = tested on: Hepatitis C virus (HCV type 2a, JFH1-Luc virus strain); assay: MD36792 experiment against hepatitis C virus (Rluc reporter, Huh7.5.1 cells); format: cell-based
ICR mice = assay: Acetic acid-induced twisting (writhing) model, analgesic effect; format: in vivo; details: for Twisting Number Mean: 1 hour before 0.8% acetic acid i.p., 10 mice; for analgesic effect: acetic acid-induced model, mice
Experimental: Experimental method: Animals were adaptively fed for 5 days, and the body weight of the mice was weighed. […] The mice assigned to MD36792 group and the positive control group were given the corresponding drugs. After 1 hour of administration, the mice in each group were intraperitoneally injected with 0.8% acetic acid (0.2 mL/head). The twisting number of the mice were observed and recorded within 15 minutes.

[3] = tested on: Human Immunodeficiency Virus (HIV); assay: MD36792 experiments against human immunodeficiency virus (MT-4 cell protection); format: cell-based; details: MT-4 cells, LAI virus
Experimental: • 1. […] Cell: MT4 cells. • 3. Virus: Human Immunodeficiency Virus (HIV). • 4. Experimental reagents: RPMI-1640 medium, CellTiter-Glo detection kit (Promega) and other experimental reagents.
Experimental principle: MT-4 cell protection experiments were used to detect compounds against viruses.
Experimental steps: A 3-fold diluted drug was added to a 96-well plate, which incubates the LAI virus and MT-4 cells and inoculates it into the well plate. After culture, when the virus infects the control wells, a significant CPE appears. Reagent CellTiter-Glo was added and mixed, then the chemiluminescence signal is to be detected.
The experiment set the cell control (uninfected cell control), virus control, and positive drug control (Zidovudine, AZT).

Hepatitis B virus (HBV) = assay: MD36792 experiment against hepatitis B virus (HBeAg/HBsAg ELISA, HepAD38 cells); format: cell-based; details: 72 hours, from 333 μM
Ebola virus = format: cell-based
HBV patients = assay: Dicycloplatin alone in hepatitis B patients; format: in vivo, human; details: 12 hepatitis B patients, 1-3 months
[4] = tested on: patients with hepatitis C; assay: Dicycloplatin alone in hepatitis C patients; format: in vivo, human; details: 9 patients with hepatitis C, 1-3 months
HIV-infected individuals = tested on: HIV-infected individuals; design: species or system human; details: in vivo
[5] = tested on: Ebola virus infected people; format: in vivo, human; details: 20 Ebola-infected patients (Africa), dicycloplatin alone i.v., 1-3 weeks
cancer patients = assay: Effect of dicycloplatin on pain in cancer patients (Table 5); format: in vivo, human; details: for pain, 5th day / pain, 17th day / pain, 31st day, then stop taking: 150 mg i.v. drip once every two days; for pain, 60th-90th (without using DCP ): after stopping
Experimental: Among cancer patients, it is suitable especially to patients with advanced liver cancer, kidney cancer, bone metastases, brain metastases and bone cancer. […] Some patients stopped using dicycloplatin after a certain course of dicycloplatin treatment, and no pain occurred again.
Dose of the above cancer patients is taken once every two days, 150 mg/5% glucose aqueous solution is dripped intravenously.

tumor patients = assay: Effect of dicycloplatin on tumor-induced tissue edema and inflammation; format: in vivo, human
HCV virus = assay: In vitro efficacy of MD36792 and combination with AA011 and VK021 on HCV virus; format: cell-based
cells = assay: Toxicity to the cells in the HCV combination study; format: cell-based; details: toxic CC50 to the cells; start concentration 200 μg/ml MD36792, 4 X dilution
[6] = at 1000 μM and 250 μM concentration
[7] = Lung cancer to bone metastasis 5 cases
[8] = Lung cancer to brain metastasis 2 cases

Compound: C[C@@]1(O)[C@H](O)[C@@H](CO)O[C@H]1n1ccc(N)nc1=O [2'CMC, reference compound]
- antiviral effect (virus; positive drug, better as the dose increases): good antiviral effect

Compound: N[C@@H](CCC(=O)N[C@@H](CS)C(=O)NCC(=O)O)C(=O)O [AA011, glutathione]
- antiviral effect (virus; [6]): certain antiviral effect
- cytotoxicity [1]: no obvious cytotoxicity

Compound: NC(=O)c1ncn([C@@H]2O[C@H](CO)[C@@H](O)[C@H]2O)n1 [Ribavirin, reference compound]
- inhibitory effect on HCV [2]: significant inhibitory effect

Compound: COc1cc2c(cc1OC)[C@@H]1Cc3ccc(OC)c(OC)c3CN1CC2 [Rotundine, reference compound]
- Twisting Number Mean (ICR mice; 100 mg/kg, counted within 15 minutes): 2.8
- number of writhing compared with the model group (ICR mice; 100 mg/kg, P=0.000): statistically significantly suppressed
- analgesic effect (ICR mice): significant analgesic effects

Compound: O=C1O[C@H]([C@@H](O)CO)C(O)=C1O [VK021, vitamin C]
- antiviral effect (virus; [6]): certain antiviral effect

Compound: Cc1cn([C@H]2C[C@H](N=[N+]=[N-])[C@@H](CO)O2)c(=O)[nH]c1=O [zidovudine, Zidovudine, reference compound]
- inhibitory effect on HIV infection [3]: significant inhibitory effect

Compound: Dicycloplatin [MD36792]
- inhibitory effect on HCV [2]: no inhibitory effect
- EC50 ([2]; 72 hours, read-out: EC50 (50% inhibition) of HCV): 121 µM
- inhibitory effect on the expression of HBeAg (e antigen) of HBV (Hepatitis B virus (HBV)): no inhibitory effect
- inhibitory effect on the expression of HBsAg (surface antigen) of HBV (Hepatitis B virus (HBV)): no inhibitory effect
- inhibitory effect on HIV infection [3]: no inhibitory effect
- inhibitory effect on Ebola virus infection (Ebola virus): no inhibitory effect
- virus index (HBV patients; dicycloplatin alone 150 mg once every two days (i.v. drip or oral)): None of the patients showed a downward trend
- liver function (HBV patients; dicycloplatin alone): did not improve
- virus index ([4]; dicycloplatin alone 150 mg once every two days): None of the patients showed a downward trend
- liver function ([4]; dicycloplatin alone): did not improve
- liver function (HIV-infected individuals): did not improve
- viral index (HIV-infected individuals; po): none showed a downward trend
- control or remission [5]: without any control or remission
- virus index [5]: None of the patients showed a downward trend
- pain, 5th day (cancer patients; Bone cancer 3 cases): Pain gone
- pain, 17th day (cancer patients; Bone cancer 3 cases): No pain
- pain, 31st day, then stop taking (cancer patients; Bone cancer 3 cases): No pain
- pain, 60th-90th (without using DCP ) (cancer patients; Bone cancer 3 cases): No pain
- pain, 5th day (cancer patients; Kidney cancer 1 case): Pain relieved
- pain, 17th day (cancer patients; Kidney cancer 1 case): Pain gone
- pain, 31st day, then stop taking (cancer patients; Kidney cancer 1 case): No pain
- pain, 60th-90th (without using DCP ) (cancer patients; Kidney cancer 1 case): No pain
- pain, 5th day (cancer patients; Liver cancer 5 cases): Pain gone
- pain, 17th day (cancer patients; Liver cancer 5 cases): No pain
- pain, 31st day, then stop taking (cancer patients; Liver cancer 5 cases): No pain
- pain, 60th-90th (without using DCP ) (cancer patients; Liver cancer 5 cases): No pain
- pain, 5th day (cancer patients; [7]): Pain gone
- pain, 17th day (cancer patients; [7]): No pain
- pain, 31st day, then stop taking (cancer patients; [7]): No pain
- pain, 60th-90th (without using DCP ) (cancer patients; [7]): No pain
- pain, 5th day (cancer patients; [8]): Pain gone
- pain, 17th day (cancer patients; [8]): No pain
- pain, 31st day, then stop taking (cancer patients; [8]): No pain
- pain, 60th-90th (without using DCP ) (cancer patients; [8]): No pain
- treatment of pain caused by cancer (cancer patients; cancer patients, dicycloplatin injection or oral as the only treatment): significant effect; also recorded: significant efficacy
- hepatic tissue edema (tumor patients; liver cancer patients, infusion or oral administration for a period of time): significantly disappeared or reduced
- tissue edema in the brain caused by cancer metastasis (tumor patients; lung cancer patients with brain metastases, oral or injection, one to two weeks): basically eliminated
- SI (selection index of the antiviral effect) (HCV virus): 4.44
- EC50 (HCV virus; start concentration 200 μg/ml MD36792, 4 X dilution): 15.62 µg/mL
- CC50 (cells): 69.4 µg/mL
- dose relation of analgesic effects (ICR mice; 10, 20, 40 mg/kg): dose-independent
- Twisting Number Mean (ICR mice; High dose 40 mg/kg, within 15 minutes): 8.7
- Twisting Number Mean (ICR mice; Low dose 10 mg/kg, within 15 minutes): 15.2
- Twisting Number Mean (ICR mice; Middle dose 20 mg/kg, within 15 minutes): 14.8
- analgesic effect (ICR mice): significant analgesic effects
- analgesic effect (ICR mice; listed as dicycloplatin): significant analgesic effect
- number of writhing compared with the model group (ICR mice; high-dose group (40 mg/kg), P=0.009): statistically significantly suppressed
